The target in one experiment is rat orexin 1 receptor (Rattus norvegicus, UniProt P56718). The experiment in a line: Rat orexin 1 receptor radioligand binding. The note with it: rat orexin 1 receptor; averages of 2-20 runs; read-out: rOX1 Ki. As to the method: (§1) Data are analyzed using pc-Sandy macro and graphed on Graphpad Prism 5. For analysis, each concentration point is averaged from triplicate values and the averaged values are plotted on Graphpad Prism. The IC50 was determined by applying the following equation (GraphPad Prism 5.0, SanDiego) for one site competition where X=log (concentration) and Y=specific binding. Top denotes the total [^3H]-(1-(5-(2-fluoro-phenyl)-2-methyl-thiazol-4-yl)-1-((S)-2-(5-phenyl-(1,3,4)oxadiazol-2-ylmethyl)-pyrrolidin-1-yl)-methanone) binding, bottom denotes the nonspecific [^3H]-(1-(5-(2-fluoro-phenyl)-2-methyl-thiazol-4-yl)-1-((S)-2-(5-phenyl-(1,3,4)oxadiazol-2-ylmethyl)-pyrrolidin-1-yl)-methanone) binding. Graphpad Prism calculates Ki value from IC50 and the pre-determined Kd values for [^3H]-(1-(5-(2-fluoro-phenyl)-2-methyl-thiazol-4-yl)-1-((S)-2-(5-phenyl-(1,3,4)oxadiazol-2-ylmethyl)-pyrrolidin-1-yl)-methanone) and [3H]-EMPA. The Ki for each compound is then uploaded into 3DX. Each run comprises individual compounds in triplicate. The data in Table 1 and Table 2 represent averages from between 2-20 runs
(§2) Rat and Human Orexin 1 Receptor Radioligand Binding Studies
(§3) After centrifugation (2K×G, 5 min at 4° C.), the supernatant was aspirated and the pellets frozen and stored at −80° C. […] Each cell pellet from a 15 cm plate was resuspended in 10 mL, stored on ice, and homogenized for 45 sec prior to addition to the reactions. […] The final concentration of DMSO in the reactions is equal to or less than 0.1%. Total and nonspecific binding was determined in the absence and presence of 10 μM almorexant. The total volume of each reaction is 200 μL (20 μL of diluted compounds, 80 μL of [^3H]-(1-(5-(2-fluoro-phenyl)-2-methyl-thiazol-4-yl)-1-((S)-2-(5-phenyl-(1,3,4)oxadiazol-2-ylmethyl)-pyrrolidin-1-yl)-methanone) diluted in PBS and 100 μL of the cell suspension). […] The plates were washed 3 times by aspirating 30 ml PBS through the plates. Plates were dried in 55° C. oven for 60 min, scintillation fluid was added, and the radioactivity was counted on a Topcount (Packard).

A further experiment addresses human orexin 1 receptor (Homo sapiens, UniProt O43613). The experiment in a line: Human orexin 1 receptor radioligand binding. The following applies: human orexin 1 receptor; averages of 2-20 runs; read-out: hOX1 Ki. As to the method:
as §1, §2, §3

Another experiment deals with human orexin 2 receptor (Homo sapiens (Human), UniProt O43614). Description: Human orexin 2 receptor radioligand binding. The following applies: human orexin 2 receptor; averages of 2-20 runs; read-out: hOX2 Ki. The protocol: as §1
Human Orexin 2 Receptor Radioligand Binding Studies
as §3, with “HEK293 stably expressing human orexin 2 receptor (Genebank accession number NM_001526) were grown to confluency in DMEM (Hyclone, cat # SH30022), 10% FBS, 1× Pen/Strep, 1× NaPyruvate, 10 mM HEPES, 600 ug/ml G418 media on 150 cm^2 tissue culture plates, washed with 5 mM EDTA in PBS (HyClone Dulbecco's Phosphate Buffered Saline 1× with Calcium and Magnesium, Cat # SH30264.01, hereafter referred to simply as PBS) and scraped into 50 ml tubes. After” for “After”, “sec just” for “sec”, “[^3H]-EMPA” for “[^3H]-(1-(5-(2-fluoro-phenyl)-2-methyl-thiazol-4-yl)-1-((S)-2-(5-phenyl-(1,3,4)oxadiazol-2-ylmethyl)-pyrrolidin-1-yl)-methanone)”

Sequence of human orexin 2 receptor (O43614 whole entry): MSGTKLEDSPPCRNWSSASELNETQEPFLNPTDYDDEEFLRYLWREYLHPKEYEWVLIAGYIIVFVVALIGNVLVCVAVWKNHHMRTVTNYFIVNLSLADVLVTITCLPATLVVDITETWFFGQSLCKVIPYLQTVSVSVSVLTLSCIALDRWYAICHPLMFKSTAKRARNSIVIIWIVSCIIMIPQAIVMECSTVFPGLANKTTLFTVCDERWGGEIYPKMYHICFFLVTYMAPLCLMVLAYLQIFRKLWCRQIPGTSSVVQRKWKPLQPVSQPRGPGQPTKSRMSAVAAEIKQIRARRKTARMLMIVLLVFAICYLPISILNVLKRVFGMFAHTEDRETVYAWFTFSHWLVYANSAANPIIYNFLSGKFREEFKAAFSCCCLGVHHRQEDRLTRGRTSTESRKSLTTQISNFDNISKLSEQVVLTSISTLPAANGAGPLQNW

Broadly, the Ki is the dissociation constant of the complex between target and ligand, obtained from inhibition or displacement. For the compound `O=C(c1cc(F)ccc1-n1nccn1)N1C[C@H]2C[C@@H](Oc3ccc(Br)cn3)[C@@H]1C2` [Example 108, ((1S,4R,6R)-6-((5-bromopyridin-2-yl)oxy)-2-azabicyclo[2.2.1]heptan-2-yl)(5-fluoro-2-(2H-1,2,3-triazol-2-yl)phenyl)methanone], the values for the inhibition constant Ki on rat orexin 1 receptor, on human orexin 1 receptor and at human orexin 2 receptor were 0.008 µM, 0.031 µM and 0.776 µM, respectively.
On to `O=C(c1c(F)cccc1-c1ncco1)N1C[C@H]2C[C@@H](Oc3ccc(C(F)(F)F)cn3)[C@@H]1C2` [Example 292, (2-fluoro-6-(oxazol-2-yl)phenyl)((1S,4R,6R)-6-((5-(trifluoromethyl)pyridin-2-yl)oxy)-2-azabicyclo[2.2.1]heptan-2-yl)methanone], for which the figures for the inhibition constant (Ki) on rat orexin 1 receptor, on human orexin 1 receptor and on human orexin 2 receptor were 0.019 µM, 0.04 µM and 0.673 µM, respectively.
Turning to `O=C(c1cccc(F)c1-c1ncccn1)N1C[C@H]2C[C@@H](Oc3ncc(Cl)cn3)[C@@H]1C2` [Example 284, ((1S,4R,6R)-6-((5-chloropyrimidin-2-yl)oxy)-2-azabicyclo[2.2.1]heptan-2-yl)(3-fluoro-2-(pyrimidin-2-yl)phenyl)methanone], the inhibition constant (Ki) at rat orexin 1 receptor is 0.045 µM; at human orexin 1 receptor it was 0.047 µM; on human orexin 2 receptor, 5.6 µM.
In the case of `O=C(c1cccc(F)c1-n1nccn1)N1C[C@H]2C[C@@H](Nc3cnc(C(F)(F)F)cn3)[C@@H]1C2` [Example 192, (3-fluoro-2-(2H-1,2,3-triazol-2-yl)phenyl)((1S,4S,6R)-6-((5-(trifluoromethyl)pyrazin-2-yl)amino)-2-azabicyclo[2.2.1]heptan-2-yl)methanone], the values for the inhibition constant (Ki) at rat orexin 1 receptor, at human orexin 1 receptor and on human orexin 2 receptor were 0.008 µM, 0.007 µM and 0.249 µM, respectively.
Taken in the same sequence, the figures for `COc1ccc(N[C@@H]2C[C@H]3C[C@@H]2N(C(=O)c2cccc(F)c2-c2ncccn2)C3)nc1` [Example 176, (3-fluoro-2-(pyrimidin-2-yl)phenyl)((1S,4S,6R)-6-((5-methoxypyridin-2-yl)amino)-2-azabicyclo[2.2.1]heptan-2-yl)methanone] were 0.056 µM, 0.052 µM and 1.3 µM.
As to `O=C(c1cccnc1-n1nccn1)N1C[C@H]2C[C@@H](Oc3ccc(C(F)(F)F)cn3)[C@@H]1C2` [Example 87, (2-(2H-1,2,3-triazol-2-yl)pyridin-3-yl)((1S,4R,6R)-6-((5-(trifluoromethyl)pyridin-2-yl)oxy)-2-azabicyclo[2.2.1]heptan-2-yl)methanone], the Ki was 0.156 µM on rat orexin 1 receptor, 0.211 µM at human orexin 1 receptor and > 10 µM on human orexin 2 receptor.
For the compound `O=C(c1ccc(F)cc1-n1nccn1)N1C[C@H]2C[C@@H](Oc3ccc(Br)cn3)[C@@H]1C2` [Example 107, ((1S,4R,6R)-6-((5-bromopyridin-2-yl)oxy)-2-azabicyclo[2.2.1]heptan-2-yl)(4-fluoro-2-(2H-1,2,3-triazol-2-yl)phenyl)methanone], the Ki turned out to be 0.016 µM on rat orexin 1 receptor, 0.026 µM on human orexin 1 receptor and 1.96 µM on human orexin 2 receptor.
For `O=C(c1cc(F)ccc1-n1nccn1)N1CC2CC(Nc3cnc(Cl)cn3)C1C2` [Example 213, 1S,4S,6R)-6-((5-chloropyrazin-2-yl)amino)-2-azabicyclo[2.2.1]heptan-2-yl)(5-fluoro-2-(2H-1,2,3-triazol-2-yl)phenyl)methanone], the Ki on rat orexin 1 receptor stood at 0.039 µM; on human orexin 1 receptor, 0.031 µM; at human orexin 2 receptor, 0.871 µM.
The matching figures for `O=C(c1ccccc1-c1ncccn1)N1C[C@H]2C[C@@H](Nc3cnc(C(F)(F)F)cn3)[C@@H]1C2` [Example 201, (2-(pyrimidin-2-yl)phenyl)((1S,4S,6R)-6-((5-(trifluoromethyl)pyrazin-2-yl)amino)-2-azabicyclo[2.2.1]heptan-2-yl)methanone]: 0.006 µM, 0.006 µM and 0.213 µM.
As to `O=C(c1cccnc1-n1nccn1)N1C[C@H]2C[C@@H](Nc3cnc(C(F)(F)F)cn3)[C@@H]1C2` [Example 188, (2-(2H-1,2,3-triazol-2-yl)pyridin-3-yl)((1S,4S,6R)-6-((5-(trifluoromethyl)pyrazin-2-yl)amino)-2-azabicyclo[2.2.1]heptan-2-yl)methanone], the Ki on rat orexin 1 receptor was 0.191 µM; on human orexin 1 receptor, 0.21 µM; on human orexin 2 receptor, > 10 µM.
The matching figures for `O=C(c1c(F)cccc1-n1nccn1)N1C[C@H]2C[C@@H](Nc3ncc(C(F)(F)F)cn3)[C@@H]1C2` [Example 226, (2-fluoro-6-(2H-1,2,3-triazol-2-yl)phenyl)((1S,4S,6R)-6-((5-(trifluoromethyl)pyrimidin-2-yl)amino)-2-azabicyclo[2.2.1]heptan-2-yl)methanone]: 0.017 µM, 0.019 µM and 0.874 µM.
As to `Cc1ccc(O[C@@H]2C[C@H]3C[C@@H]2N(C(=O)c2cccc(F)c2-c2ncccn2)C3)nc1` [Example 101, (3-fluoro-2-(pyrimidin-2-yl)phenyl)((1S,4R,6R)-6-((5-methylpyridin-2-yl)oxy)-2-azabicyclo[2.2.1]heptan-2-yl)methanone], the Ki at rat orexin 1 receptor turned out to be 0.026 µM; on human orexin 1 receptor, 0.011 µM; on human orexin 2 receptor, 0.71 µM.
Consider `O=C(c1ccccc1-c1ncc(F)cn1)N1C[C@H]2C[C@@H](Nc3cnc(C(F)(F)F)cn3)[C@@H]1C2` [Example 203, (2-(5-fluoropyrimidin-2-yl)phenyl)((1S,4S,6R)-6-((5-(trifluoromethyl)pyrazin-2-yl)amino)-2-azabicyclo[2.2.1]heptan-2-yl)methanone], for which the Ki on rat orexin 1 receptor was 0.009 µM; on human orexin 1 receptor, 0.009 µM; on human orexin 2 receptor it was 0.545 µM.
For the compound `O=C(c1ccccc1-n1nccn1)N1C[C@H]2C[C@@H](Oc3ccc(Br)cn3)[C@@H]1C2` [Example 49, (2-(2H-1,2,3-triazol-2-yl)phenyl)((1S,4R,6R)-6-((5-bromopyridin-2-yl)oxy)-2-azabicyclo[2.2.1]heptan-2-yl)methanone], the Ki stood at 0.005 µM at human orexin 1 receptor and 0.443 µM on human orexin 2 receptor.
For `Cc1ccc(-n2nccn2)c(C(=O)N2C[C@H]3C[C@@H](Oc4ccc(Br)cn4)[C@@H]2C3)n1` [Example 50, ((1S,4R,6R)-6-((5-bromopyridin-2-yl)oxy)-2-azabicyclo[2.2.1]heptan-2-yl)(6-methyl-3-(2H-1,2,3-triazol-2-yl)pyridin-2-yl)methanone], the inhibition constant Ki came to 0.01 µM on human orexin 1 receptor and 0.578 µM at human orexin 2 receptor.
As for `O=C(c1ccc(F)cc1-n1nccn1)N1C[C@H]2C[C@@H](Oc3ccc(C(F)(F)F)cn3)[C@@H]1C2` [Example 44, (4-fluoro-2-(2H-1,2,3-triazol-2-yl)phenyl)((1S,4R,6R)-6-((5-(trifluoromethyl)pyridin-2-yl)oxy)-2-azabicyclo[2.2.1]heptan-2-yl)methanone], the figures for the Ki at human orexin 1 receptor and on human orexin 2 receptor were 0.039 µM and 2.33 µM, respectively.
As to `O=C(c1ccccc1-n1nccn1)N1C[C@H]2C[C@@H](Nc3cnc(C(F)(F)F)cn3)[C@@H]1C2` [Example 59, (2-(2H-1,2,3-triazol-2-yl)phenyl)((1S,4S,6R)-6-((5-(trifluoromethyl)pyrazin-2-yl)amino)-2-azabicyclo[2.2.1]heptan-2-yl)methanone], the Ki at human orexin 1 receptor stood at 0.007 µM; on human orexin 2 receptor it was 0.192 µM.
In the case of `O=C(c1cc(F)ccc1-c1ncccn1)N1C[C@H]2C[C@@H](Nc3ccc(Cl)cn3)[C@@H]1C2` [Example 172, ((1S,4S,6R)-6-((5-chloropyridin-2-yl)amino)-2-azabicyclo[2.2.1]heptan-2-yl)(5-fluoro-2-(pyrimidin-2-yl)phenyl)methanone], the Ki at rat orexin 1 receptor is 0.008 µM; on human orexin 1 receptor it was 0.007 µM.

These data come from US9611277B2 (Janssen Pharmaceutica NV, priority 2013, dated 2017).
